# Test results from patent publication KR20180000079A, “Kahweol을 포함하는 항비만 조성물” (경북대학교 산학협력단, priority 2016, dated 2018).
# Key:
# Assay type in all cases: cell-based, mouse
# adiponectin [아디포넥틴] [1] = experiment: RT-PCR, adiponectin mRNA expression in 3T3-L1 cells; conditions: 40 μM
# [2] = system: 3T3-L1 adipocytes [3T3-L1 지방세포]; experiment: Oil Red O staining: differentiation and lipid accumulation in 3T3-L1 cells
# PPARγ [3] = experiment: RT-PCR, PPARγ mRNA expression in 3T3-L1 cells; conditions: 40 μM
# [4] = system: 3T3-L1 adipocytes [3T3-L1 지방세포]; experiment: Triglyceride (TG) quantification in 3T3-L1 cells (colorimetric kit)
# adiponectin [아디포넥틴] [5] = experiment: Western blot, adiponectin protein expression in 3T3-L1 adipocytes; conditions: 40 μM
# [6] = system: 3T3-L1 preadipocytes [3T3-L1 전구 지방세포]; experiment: MTT assay, cytotoxicity in 3T3-L1 preadipocytes; conditions: 3T3-L1 cells, 4 or 40 μM, 24 or 48 h
# C/EBPα [7] = experiment: Western blot, C/EBPα protein expression in 3T3-L1 adipocytes; conditions: 40 μM
# PPARγ [8] = experiment: Western blot, PPARγ protein expression in 3T3-L1 adipocytes; conditions: 40 μM
# C/EBPα [9] = experiment: RT-PCR, C/EBPα mRNA expression in 3T3-L1 cells; conditions: 40 μM
smiles,measurement,setting,value
C[C@@]12C=Cc3occc3[C@H]1CC[C@@]13C[C@@H](CC[C@H]12)[C@@](O)(CO)C3 [Kahweol],adiponectin mRNA level,adiponectin [아디포넥틴] [1],감소
same,differentiation of 3T3-L1 cells,"[2]; 40 μM, 8 days",분화가 억제됨
same,cell morphology,"[2]; 40 μM, 8 days, similar to preadipocytes (Fig. 3A)",소형 스핀들-형상 형태
same,lipid accumulation inhibitory activity compared with positive control,"[2]; 3T3-L1 cells, 40 μM",양성 대조군 보다 우수한
same,intracellular lipid accumulation,"[2]; 3T3-L1 cells, Oil Red O",억제함
same,PPARγ mRNA level,PPARγ [3],현저히 감소
same,TG formation,[4],억제함
same,TG formation inhibitory activity compared with positive control,[4]; 40 μM,양성 대조군 보다 우수한
same,inhibition at 40 µM,"[4]; Mus musculus, 40 μM, read-out: decrease of intracellular TG level",43.3%
same,adiponectin protein expression,adiponectin [아디포넥틴] [5],억제됨
same,cytotoxic effect,[6],세포 독성 효과를 보이지 않았다
same,C/EBPα protein expression,C/EBPα [7],억제됨
same,PPARγ protein expression,PPARγ [8],억제됨
same,C/EBPα mRNA level,C/EBPα [9],현저히 감소
